Source: article PMC3328449, “Inhibition of Diacylglycerol–Sensitive TRPC Channels by Synthetic and Natural Steroids” (PLoS ONE, 2012)

Biological target: T1, human α1A-receptors (Homo sapiens, UniProt P35348)
T1 construct: expressed in transfected cells
T1 sequence (P35348 1-466): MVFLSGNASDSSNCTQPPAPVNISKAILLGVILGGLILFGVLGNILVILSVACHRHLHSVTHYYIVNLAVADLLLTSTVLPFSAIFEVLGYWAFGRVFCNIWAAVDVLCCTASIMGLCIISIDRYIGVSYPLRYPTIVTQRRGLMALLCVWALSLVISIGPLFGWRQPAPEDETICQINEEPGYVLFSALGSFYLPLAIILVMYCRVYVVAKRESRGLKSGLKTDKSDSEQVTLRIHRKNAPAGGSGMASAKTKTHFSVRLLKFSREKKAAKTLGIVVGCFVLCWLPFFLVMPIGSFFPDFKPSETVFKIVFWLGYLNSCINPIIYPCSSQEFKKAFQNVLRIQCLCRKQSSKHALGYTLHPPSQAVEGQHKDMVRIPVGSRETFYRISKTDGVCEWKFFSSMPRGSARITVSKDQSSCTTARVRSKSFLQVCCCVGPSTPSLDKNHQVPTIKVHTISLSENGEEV
Experiment: Phenylephrine-induced Ca2+ release in CHO cells expressing human α1A-receptors (fluo-4)
Type: cell-based
Settings: 10 µM phenylephrine, 1 mM EGTA buffer
Experimental: For measurement of norgestimate effects on adrenoceptor signaling a CHO cell line stably expressing human α1A-receptors (GenBank accession number NM_000680.2) under control of a CMV promoter was used. CHO cells were kept in HAM's F-12 medium (with glutaMAX I) supplemented with 10% (v/v) fetal bovine serum (Biochrom), 1 mM glutamine, and 0.6 mg/ml geneticin.
[Ca^2+]i measurements in CHO cells stably expressing human α1A –receptors were performed essentially as described for HEK-FITR cells. The α1- agonist phenylephrine was used for receptor stimulation.
Supplementary file pone.0035393.s001.tif: Figure S1 Stimulatory effect of norgestimate on α1A- receptor-mediated Ca^2+ signaling in CHO cells. (A) Phenylephrine (Phe) -induced changes of [Ca^2+]i were measured in a stable CHO cell line expressing human α1A-adrenoceptors. Cells loaded with fluo-4 were pre-incubated with or without 30 µM norgestimate (NG) and challenged with 10 µM phenylephrine or control buffer. Representative traces are shown. Fluorometric imaging plate reader [Ca^2+]i measurements were performed essentially as described for HEK-FITR cells (see Materials and Methods) with the exception that the extracellular buffer contained 1 mM EGTA instead of 2 mM Ca^2+. (B) The relative increase in Ca^2+ release induced in the presence of different concentrations of norgestimate is shown. […]

C#C[C@]1(OC(C)=O)CC[C@H]2[C@@H]3CCC4=CC(=NO)CC[C@@H]4[C@H]3CC[C@@]21CC (mixture of isomers) [norgestimate]
Effect on phenylephrine-induced Ca2+ release: significantly stimulated
